Assay results reported in article PMC11091976, “Shorter Peptide Nucleic Acid Probes Improve Affibody-Mediated Peptide Nucleic Acid-Based Pretargeting” (ACS Pharmacology & Translational Science, 2024).
Where two headings read alike, the source gives them in different places.

What was measured:
Z-HP9 [1] = assay: SPR off-rate screening (single-cycle kinetics), immobilized Z-HP9; type: binding; conditions: primary probe HP9 (immobilized Z-HP9), 25 °C, PBS-T pH 7.4, 120 nM HP16/HP20 or 362 nM HP21/HP19, dissociation 150 min, 1:1 model, duplicates
Procedure: (§1) The stability of new pretargeting probe combinations was assessed using SPR, and duplex melting temperatures were measured with UV–vis spectroscopy. In SPR, a high concentration of the secondary probe was injected over immobilized primary agents, and the dissociation of the hybridized complexes was monitored over 150 min (see Figures 3A, S22, and Table 2).
(§2) We utilized SPR on a Biacore T200 instrument (Cytiva) to examine how secondary PNA probes (6-mer HP19, 7-mer HP21, 8-mer HP20, and 9-mer HP16) bind to primary agents. These experiments were conducted using dextran-coated CM5 sensor chips and PBS-T buffer at pH 7.4. The ligands were immobilized through a standard EDC/NHS coupling method, and the chip surface was sealed with ethanolamine. A reference surface with no primary agent was also included.
(§3) For ranking the off-rate (kd) of the secondary probes, we employed single-cycle kinetics (SCK) at 25 °C with a flow rate of 50 μL/min. […] Secondary PNA probes were injected at various concentrations, and dissociation was monitored for 10,000 s. To regenerate the chip surface, we used two 30 s injections of 10 mM glycine-HCl, pH 1.5.
(§4) All SPR experiments were performed in duplicate, and data analysis was conducted using the Biacore T200 Evaluation software version 2.0 with a 1:1 binding model.
(§5) Figure S22: Representative SPR sensorgrams of the dissociation phase of HP16 (9-mer), HP20 (8-mer), HP21 (7-mer) and HP19 […]
(§6) After injection with the secondary probe
(§7) (120 nM of HP16 and HP20 or 362 nM of HP21 and HP19) the dissociation of the formed complex was followed for 150 minutes. All experiments were done in duplicates, and the data presented is double-referenced (reference channel and buffer injection are subtracted).
(§8) (1 picture or pasted object on this page, not shown here)

HP12 = assay: UV melting of PNA:PNA duplex with primary probe HP12; type: physicochemical; conditions: UV 260 nm, 20-95 °C at 1 °C/min, 5 μM each probe, 10 mM phosphate buffer, 10 mM KCl, pH 7.4
Procedure: (§9) The melting temperatures of secondary probes after duplex formation with primary probes were also measured by monitoring the absorbance at 260 nm as a function of temperature (see Figure S23). All probe pairs had melting temperatures well above 37 °C (body temperature) and ranged from 51 °C for the HP6:HP19 pair with 6 complementary bases to 82 °C for the previously studied HP15:HP18 pair with 15 complementary bases (see Figure 3B and Table 2). […] This secondary structure is typically adopted by antiparallel and L-amino acid-modified PNA–PNA duplexes at neutral pH.[49]
(§10) Figure S23: Normalized temperature melting profiles from 20–95°C for different primary and secondary probe pairs. UV melting curves at 260 nm. (A) HP15 (15-mer) toward secondary 15-, 12- and 9-mers. (B) HP12 (12-mer) toward secondary 12-, 9-, 8-, 7- and 6-mers. (C) HP9 (9-mer) toward secondary 9-, 8-, 7- and 6-mers. (D) HP6 (6-mer) toward secondary 6-mer.
(§11) Concentrations of duplexes in A–D are 5 μM in 10 mM […] with 10 mM KCl at pH 7.4.
(§12) (also on this page, place not known: Fraction melted Fraction meltedFraction melted Fraction melted) […]
(§13) Supplementary Material and methods […]
(§14) Biophysical characterization of PNA:PNA duplexes using CD Spectroscopy and […]
(§15) Circular dichroism (CD) and UV melts of PNA:PNA duplexes were measured on a CD spectrometer (Applied Photophysics, Leatherhead, UK) with Peltier temperature control and an external temperature probe. RP-HPLC purified and lyophilized PNA probes were dissolved in 10 mM phosphate buffer with 10 mM KCl at pH 7.4. Samples contained both primary and complementary secondary PNA probes at a final concentration of 5 µM for each probe. These samples were initially heated to 95°C for five minutes, allowed to cool to room temperature, and then transferred to a quartz cuvette with a 1.0 cm path length. A temperature probe was inserted into the solution through the cuvette's rubber cap. […]
(§16) from 20°C to 95°C with a 1°C/min temperature gradient. Simultaneously, the UV absorbance at 260 nm was recorded as a function of temperature. Fraction melted data was calculated […]
(§17) Fraction melted = 1 ― UVds― UVss , where UVss and UVds are the UV absorbances at 95°C and 20°C, respectively. The melting temperature (Tm) was determined as the maximum of the first derivative of the melting curve and was computed using the Global 3 analysis software (Applied Photophysics, […]
(§18) CD spectra in the range of 200–300 nm were recorded for all hybridized PNA:PNA pairs at 20°C before and after the UV melting experiments. All CD spectra were baseline subtracted and presented as an average of five scans.

HP9 = assay: UV melting of PNA:PNA duplex with primary probe HP9; type: physicochemical; conditions: UV 260 nm, 20-95 °C at 1 °C/min, 5 μM each probe, 10 mM phosphate buffer, 10 mM KCl, pH 7.4
Procedure: as §9, §10, §11, §12, §13, §14, §15, §16, §17, §18

Z-HP12 = assay: SPR off-rate screening (single-cycle kinetics), immobilized Z-HP12; type: binding; conditions: primary probe HP12 (immobilized Z-HP12), 25 °C, PBS-T pH 7.4, 120 nM HP16/HP20 or 362 nM HP21/HP19, dissociation 150 min, 1:1 model, duplicates
Procedure: as §1, §2, §3, §4, §5, §6, §7, §8

[2] = Solubility of secondary probes in labeling buffer; type: physicochemical; conditions: 0.2 M NH4Ac; for increase in solubility compared to the 15-mer HP18 / maximum soluble concentration: pH 5.5, 25 °C; for maximum soluble concentration: heated 95 °C 5 min, 18-h static incubation, centrifugation, UV 260 nm of supernatant, highest concentration with at least 95% still soluble, duplicates
Procedure: However, as we moved to shorter PNA oligomers, solubility saw a substantial, nonlinear increase. […] For example, at 25 °C, the maximum soluble concentration of HP17 (12-mer) was around 6 μM. […]
pH 5.5 at 25°C. Dilution series of HPLC-purified and lyophilized secondary probes (1, 3, 6, 9, 13, 26, 39, 52 and 65 µM) for […]
samples were heated at 95°C for five minutes and concentration of the soluble fraction was determined by UV absorption at 260 nm before (grey bars), and after (black bars) an 18-hour static incubation at 25°C. Duplicates were prepared of all samples and the data is presented as the mean ± SD. The maximum soluble concentration of each probe, indicated in panels A-E as a dotted line, was defined as the highest concentration at which at least 95% is still in the soluble fraction after an 18-hour incubation at 25°C. PNA-aggregates are temperature-labile, as exemplified in panel C for 82 µM HP17.
After an 18-hour incubation 25°C, 6 µM is left in the soluble fraction (left black bar) but heating the sample at 95 °C for five minutes completely redissolved HP17 aggregates into solution (right black bar).
as §8
Supplementary Material and methods
Solubility of secondary probes
HPLC-purified and freeze-dried secondary probes were resuspended in 10 mM NaAc, pH 3.5-3.6 and freeze-dried in smaller aliquots. The secondary probes were re-dissolved in 0.2 M NH4Ac, pH 5.5, and the samples were heated at 95 °C for five minutes to ensure complete dissolvement. Dilution series of secondary probes (1, 3, 6, 9, 13, 26, 39, 52 and 65 μM) for […]
NH4Ac, pH 5.5. The samples were then left for an 18-hour static incubation at 25 C, before being centrifugated at 21,100 x g for 5 minutes on a standard benchtop centrifuge (Eppendorf). The supernatants were transferred to fresh 1.5 mL Eppendorf-tubes, and the […]

Z-HP15 [3] = assay: SPR off-rate screening (single-cycle kinetics), immobilized Z-HP15; type: binding; conditions: primary probe HP15 (immobilized Z-HP15), 25 °C, PBS-T pH 7.4, 120 nM HP16/HP20 or 362 nM HP21/HP19, dissociation 150 min, 1:1 model, duplicates
Procedure: as §1, §2, §3, §4, §5, §6, §7, §8

Z-HP9 [4] = assay: Multicycle kinetic SPR, immobilized Z-HP9; type: binding; conditions: MCK SPR
Procedure: as §2
Association and dissociation times were set at 700 and 1800 s, respectively, with regeneration accomplished through a 30 s injection of 10 mM glycine-HCl, pH 1.5.
as §4

HP6 = assay: UV melting of PNA:PNA duplex with primary probe HP6; type: physicochemical; conditions: UV 260 nm, 20-95 °C at 1 °C/min, 5 μM each probe, 10 mM phosphate buffer, 10 mM KCl, pH 7.4
Procedure: as §9
Figure S23: Normalized temperature melting profiles from 20–95°C for different primary and secondary probe pairs. UV melting curves at 260 nm. […]
(§19) Circular dichroism (CD) and UV melts of PNA:PNA duplexes were measured on a CD spectrometer (Applied Photophysics, Leatherhead, UK) with Peltier temperature control and an external temperature probe. […]
as §16, §17

Z-HP15 [5] = conditions: SPR, primary probe HP15; cited from earlier work
Excerpt: Table 2 Dissociation Rate Constants (kds) and Melting Temperatures (Tms) of the PNA Probe Duplexes ^a | column: kd (s^–1)

HP15 = assay: UV melting of PNA:PNA duplex with primary probe HP15; type: physicochemical; conditions: UV 260 nm, 20-95 °C at 1 °C/min, 5 μM each probe, 10 mM phosphate buffer, 10 mM KCl, pH 7.4
Procedure: as §9, §10, §11, §12, §13, §14, §19, §16, §17
CD spectra in the range of 200–300 nm were recorded for all hybridized PNA:PNA pairs at 20°C before and after the UV melting experiments. […]

Substance: DOTA-AEEA-SS-acaccagg-EEY-NH2 [HP20, 8-mer secondary PNA probe with DOTA]
- kd (Z-HP9 [1]): 2.6 × 10^–5 s^–1
- Tm (HP12): 66 °C
- Tm (HP9): 64 °C
- kd (Z-HP12): 1.6 × 10^–5 s^–1
- increase in solubility compared to the 15-mer HP18 [2]: ~100 fold
- maximum soluble concentration [2]: 370 µM
- kd (Z-HP15 [3]): 1.4 × 10^–5 s^–1
- ka (Z-HP9 [4]; primary probe HP9 (Z-HP9 immobilized), 25 °C, 1.4-70 nM, 1:1 model, duplicates): 1.2 × 10^5 M^–1 s^–1
- Kd (Z-HP9 [4]; primary probe HP9, 25 °C): 0.55 nM
- kd (Z-HP9 [4]; primary probe HP9, 25 °C): 6.6 × 10^–5 s^–1
- Kd (Z-HP9 [4]; primary probe HP9, 37 °C): 0.79 nM
- ka (Z-HP9 [4]; primary probe HP9, 37 °C): 2.2 × 10^5 M^–1 s^–1
- kd (Z-HP9 [4]; primary probe HP9, 37 °C): 1.7 × 10^–4 s^–1

Substance: DOTA-AEEA-SS-accagg-EEY-NH2 [HP19, 6-mer secondary PNA probe with DOTA]
- kd (Z-HP9 [1]): 2.8 × 10^–4 s^–1
- Tm (HP12): 56 °C
- Tm (HP9): 55 °C
- kd (Z-HP12): 6.2 × 10^–4 s^–1
- kd (Z-HP15 [3]): 5.0 × 10^–4 s^–1
- Tm (HP6): 51 °C

Substance: DOTA-AEEA-SS-atcaacaccagg-EEY-NH2 [HP17, 12-mer secondary PNA probe with DOTA]
- Tm (HP12): 75 °C
- kd (Z-HP15 [5]): <10^–5 ^b s^–1
- increase in solubility compared to the 15-mer HP18 [2]: approximately 2 fold
- maximum soluble concentration [2]: 6 µM
- solubility after 5 min at 95 °C ([2]; pH 5.5, 82 µM sample reheated at 95 °C for 5 min after 18 h at 25 °C, UV 260 nm): exceeded 82 μM
- Tm (HP15): 78 °C

Substance: DOTA-AEEA-SS-atcatcaacaccagg-EEY-NH2 [HP18, 15-mer secondary PNA probe with DOTA]
- kd (Z-HP15 [5]): <10^–5 ^b s^–1
- maximum soluble concentration [2]: 3 µM
- Tm (HP15): 82 °C

Substance: DOTA-AEEA-SS-caccagg-EEY-NH2 [HP21, 7-mer secondary PNA probe with DOTA]
- kd (Z-HP9 [1]): 9.2 × 10^–5 s^–1
- Tm (HP12): 60 °C
- Tm (HP9): 60 °C
- kd (Z-HP12): 4.5 × 10^–5 s^–1
- kd (Z-HP15 [3]): 5.5 × 10^–5 s^–1
